From PMC7076672, “Improving the Oral Bioavailability of an Anti-Glioma Prodrug CAT3 Using Novel Solid Lipid Nanoparticles Containing Oleic Acid-CAT3 Conjugates” (Pharmaceutics, 2020)
Where two headings read alike, the source gives them in different places.

Experiments:
[1] = Transepithelial transport study; type: in vitro ADME, canine; details: dog, MDCK-MDR1, 37 °C, n = 3
Procedure: The permeabilities of CAT3 and OA-CAT3-SLN were investigated on an MDCK-MDR1 cell monolayer. MDCK-MDR1 cells were seeded onto 12-well transwell® filter inserts (pore size 0.4 μm, surface area 1.12 cm^2; Corning Incorporated, Corning, NY, USA) at a density of 2 × 10^5 cells/well. The culture medium was changed every 24 h for seven days, and the cell monolayers with a transepithelial electrical resistance (TEER) above 110 Ω·cm^2 were used for the transport experiments. Prior to performing the TEER test, the culture medium was removed, and the monolayer was pre-incubated with 0.5 mL of Hanks’ balanced salt solution (HBSS) for 20 min at 37 °C. […]
To investigate the mechanism of cellular internalization of OA-CAT3-SLN, various specific endocytic inhibitors were evaluated in the uptake study. […]
The amount of CAT3 or OA-CAT3-SLN that permeated that through the monolayer was determined using the liquid chromatography-mass spectrometry (LC-MS/MS) system. The apparent permeability coefficient (Papp) of CAT3 or OA-CAT3-SLN was calculated according to the following equation: Papp = dQ/dt × 1/(A × C0), where dQ/dt indicates the linear appearance rate of mass at the BL side (μmol/s), C0 is the initial concentration of CAT3 or OA-CAT3-SLN on the AP side (μmol/mL), and A is the surface area of the monolayer (cm^2).

C6 glioma cells = experiment: In vitro cytotoxicity analysis (MTT assay); type: cell-based; details: 0.64 ng/mL
Procedure: Cytotoxicity of the CAT3 suspension, OA-CAT3-SLN, and blank SLN against the C6 brain glioma cell line was measured by 3-(4,5-dimethylthiazol-2-yl)-2,5 diphenyltetrazolium bromide (MTT) assay. Briefly, the cells were seeded into 96-well plates at a cell density of 2 × 10^4 cells/mL (100 μL/well). After 24 h of incubation, the cells were further incubated for 24, 48, and 72 h in fresh DMEM complete medium containing 0.64 ng/mL CAT3 suspension, OA-CAT3-SLN, or the blank SLN, respectively. At the above-mentioned time points, the culture medium was replaced by the MTT solution (0.5 mg/mL, 200 μL/well), followed by incubation for further 4 h. The supernatant was removed and 100 μL of DMSO solution was added to the wells. The absorbance values of each well were measured at 570 nm using a microplate reader (Synergy H1 Hybrid Multi-Mode Microplate Reader, BioTek, Winooski, VT, USA).

[2] = In vitro release under simulated gastrointestinal conditions (dialysis bag); type: physicochemical; details: 0.1% SDS medium, 37 °C
Procedure: Drug release from SLN was monitored in vitro under simulated gastrointestinal conditions. The tests were performed by placing 2 mL SLN samples (containing 2 mg CAT3) into 400 mL of the dissolution medium maintained at 37 °C. The dissolution media contained 0.1% SDS (w/v) to meet sink conditions. Preswollen 8–10 kDa MWCO dialysis bags (Sigma-Aldrich, Madrid, Spain), which contained 5 mL of the blank SDS solution with the same concentration, were placed into the dissolution flask (n = 3). The release behavior of CAT3 was compared under the same condition by placing 5 mg CAT3 powder into the 1000 mL media. The samples (1 mL) were withdrawn at predetermined time points from the dialysis bags and replaced with the same amount of fresh medium maintained at 37 °C. The samples were centrifuged for 5 min at 12,000 rpm, and the resultant supernatants were quantified for drug content. The samples were protected from light during the experiments. The DDsolver software was used to evaluate the drug-release kinetics. An Excel worksheet (Microsoft Corporation, Redmond, WA, USA) was used to control the computing method for comparison with the results obtained using the DDSolver program. According to the example format for each built-in module of the DDSolver, all data were entered into Excel. The relevant parameters were calculated following the step-by-step equations utilizing an Excel spreadsheet.

human cell lines = details: versus pro-drug CAT3; cited from earlier work
P-gp = test system: P-gp; design: method as in PMID 25936609, PMID 35547992; details: cited from earlier work

| SMILES | Papp A→B at 2 h, 100 ng/mL [1] [×10⁻⁶ cm/s] | viability at 0.00064 µg/mL (C6 glioma cells; 24 h, n = 3, read-out: cell viability 24 h) [%] | viability at 0.00064 µg/mL (C6 glioma cells; 48 h, n = 3, read-out: cell viability 48 h) [%] | viability at 0.00064 µg/mL (C6 glioma cells; 72 h, n = 3, read-out: cell viability 72 h) [%] | CAT3 released in the first 24 h [2] | in vitro antitumor activity, times greater than CAT3 (human cell lines) | P-gp substrate (P-gp) |
| --- | --- | --- | --- | --- | --- | --- | --- |
| COc1cc2c3c(c4ccc(OC(=O)C(C)(C)C)cc4c2cc1OC)C[C@@H]1CCCN1C3 [CAT3, 13a-(S)-3-pivaloyloxyl-6,7-dimethoxyphenanthro(9,10-b)-indolizidine] | 0.106 ± 0.0289 | 81.2 | 46.2 | 16.5 | more than 80% | – | – |
| COc1cc2c3c(c4ccc(O)cc4c2cc1OC)C[C@@H]1CCCN1C3 [PF403, 13a(S)-3-hydroxyl-6,7-dimethoxyphenanthro(9,10-b)-indolizidine] | – | – | – | – | – | about 1000 times | substrate of P-gp |
